Laboratory results: patent US12678413B2, “Compositions containing pterosin compound and derivatives thereof active ingredients for prevention or treatment of degenerative brain diseases” (priority 2017, dated 2026)
Like-named read-outs stand apart in the source and are kept apart here.

Assays:
[1] = target: T1, butyrylcholinesterase (BChE) (Equus caballus, UniProt P81908); assay: In vitro cholinesterase activity assay (Ellman), BChE; format: biochemical; details: concentrations up to 125 μM; Mean ± SEM; read-out: IC50 Butyrylcholine esterase Mean ± SEM
T1 construct: horse serum butyrylcholinesterase (BChE, EC3.1.1.8); purchased Sigma-Aldrich Co. (St. Louis, MO, USA); host or cells: horse serum
T1 sequence (P81908 whole entry): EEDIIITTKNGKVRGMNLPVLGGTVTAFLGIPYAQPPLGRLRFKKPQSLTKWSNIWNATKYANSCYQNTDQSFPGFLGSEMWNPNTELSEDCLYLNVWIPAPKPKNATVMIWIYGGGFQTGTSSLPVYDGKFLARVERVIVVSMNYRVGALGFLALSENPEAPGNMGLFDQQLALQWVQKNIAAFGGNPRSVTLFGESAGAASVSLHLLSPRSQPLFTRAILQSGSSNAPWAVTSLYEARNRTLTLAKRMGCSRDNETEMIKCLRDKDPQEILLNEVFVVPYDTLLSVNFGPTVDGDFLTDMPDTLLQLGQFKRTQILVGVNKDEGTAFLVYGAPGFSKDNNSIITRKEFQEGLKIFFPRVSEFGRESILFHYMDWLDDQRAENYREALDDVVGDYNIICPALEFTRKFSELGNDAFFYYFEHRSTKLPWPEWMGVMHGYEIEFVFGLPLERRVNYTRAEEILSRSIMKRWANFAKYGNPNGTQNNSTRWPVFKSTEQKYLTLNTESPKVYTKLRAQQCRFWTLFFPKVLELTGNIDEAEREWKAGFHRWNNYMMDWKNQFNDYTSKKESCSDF
Method: (§1) The reaction started with the addition of 10 μL of DTNB and 10 μL of Ach or Bch.
(§2) Briefly, the basis for this assay is the hydrolysis of acetylthiocholine by acetylcholinesterase, producing thiocholine that reacts with DTNB. […] Degrees of inhibition were calculated according to […] wherein E and S represent enzyme activities in the presence and absence of a test sample, respectively.
(§3) The compounds of Table 1 were evaluated for anti-Alzheimer activity. In this regard, inhibitory activity against AChE (acetylcholinesterase) and BChE (butyrylcholinesterase), which lyse acetylcholine in the central nervous system, was measured according to the Experimental Method to calculate IC(inhibition concentrations)50 values.

[2] = test system: B16F10 cells; assay: MTT cytotoxicity assay, cancerous cell line B16F10; format: cell-based; details: B16F10 mouse melanoma, 48 hours incubation
Method: (§4) The normal cell line NIH3T3 (mouse embryo fibroblast cell-line) and the cancerous cell line B16F10 (mouse melanoma cell-line) were separately grown in 96-well plates and incubated for 48 hours with predetermined concentrations of each of the compounds. After additional incubation with MTT, absorbance at 550 nm was read using a microplate reader. Absorbance is an index accounting for a number of viable cells and was used to calculate cell proliferation rates according to the following formula. All experiments were conducted three times for reproducibility. Cell proliferation rate (%)=OD550(sample)/OD550(control)
(§5) Then, LD50 (Lethal Dose 50) values were calculated on the basis of changes in the cell proliferation rate.

[3] = test system: NIH3T3 cells; assay: MTT cytotoxicity assay, normal cell line NIH3T3; format: cell-based; details: NIH3T3 mouse embryo fibroblast, 48 hours incubation
Method: as §4, §5

[4] = target: T2, acetylcholinesterase (AChE) (Electrophorus electricus, UniProt O42275); assay: In vitro cholinesterase activity assay (Ellman), AChE; format: biochemical; details: for SI: selectivity index (BChE/AChE): ratio of IC50 BChE/AChE
T2 construct: purchased Sigma-Aldrich Co. (St. Louis, MO, USA)
T2 sequence (O42275 24-633): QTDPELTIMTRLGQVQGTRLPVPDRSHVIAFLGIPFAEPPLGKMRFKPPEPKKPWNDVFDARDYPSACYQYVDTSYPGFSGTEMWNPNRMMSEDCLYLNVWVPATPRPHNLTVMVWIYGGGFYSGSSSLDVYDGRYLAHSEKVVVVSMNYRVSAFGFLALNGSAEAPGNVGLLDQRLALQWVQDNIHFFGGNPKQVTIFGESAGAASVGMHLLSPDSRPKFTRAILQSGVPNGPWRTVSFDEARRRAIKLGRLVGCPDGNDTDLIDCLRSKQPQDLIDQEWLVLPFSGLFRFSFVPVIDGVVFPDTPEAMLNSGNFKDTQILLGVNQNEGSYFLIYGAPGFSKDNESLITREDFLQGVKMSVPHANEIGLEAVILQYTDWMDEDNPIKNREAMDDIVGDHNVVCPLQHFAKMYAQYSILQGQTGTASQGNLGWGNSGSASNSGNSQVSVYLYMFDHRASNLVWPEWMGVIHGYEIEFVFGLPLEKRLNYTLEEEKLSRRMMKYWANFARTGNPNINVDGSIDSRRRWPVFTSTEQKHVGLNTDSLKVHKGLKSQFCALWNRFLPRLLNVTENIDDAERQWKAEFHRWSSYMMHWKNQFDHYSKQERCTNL
Method: as §1, §2, §3

[5] = target: T3, BACE1 (β-secretase, recombinant human enzyme) (Homo sapiens, UniProt P56817); assay: In vitro BACE1 activity assay (FRET kit); format: biochemical; details: compounds in 10% DMSO, concentrations up to 125 μM
T3 construct: purchased Pan Vera Co. (Madison, WI, USA)
T3 sequence (P56817 46-501): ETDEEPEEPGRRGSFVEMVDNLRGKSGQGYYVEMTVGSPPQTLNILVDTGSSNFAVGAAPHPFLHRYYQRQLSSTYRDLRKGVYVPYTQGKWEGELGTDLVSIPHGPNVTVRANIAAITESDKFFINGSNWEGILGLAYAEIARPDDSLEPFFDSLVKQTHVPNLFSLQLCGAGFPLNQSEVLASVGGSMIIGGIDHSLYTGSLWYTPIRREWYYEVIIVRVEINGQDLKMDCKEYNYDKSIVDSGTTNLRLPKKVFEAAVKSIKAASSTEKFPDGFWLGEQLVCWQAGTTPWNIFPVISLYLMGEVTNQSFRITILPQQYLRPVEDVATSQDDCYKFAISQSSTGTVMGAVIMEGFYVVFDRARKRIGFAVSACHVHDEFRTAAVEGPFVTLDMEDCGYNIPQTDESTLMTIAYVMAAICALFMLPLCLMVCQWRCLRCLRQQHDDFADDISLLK
Source text: BACE1 (beta-secretase) FRET assay kit was purchased from Pan Vera Co. (Madison, WI, USA). All the chemicals and solvents used in column chromatography were of reagent grade and were used as received without further purification.
A BACE1 fluorescence resonance energy transfer (FRET) assay kit (β-secretase, recombinant human enzyme) was purchased from Pan Vera Co. (Madison, WI, USA).
BACE1 is an enzyme promotive of the production of β-amyloid, which destroys neurons. In order to examine the effects on the compounds of Table 1 on the activity of BACE1, IC(inhibition concentrations)50 values were determined by measuring BACE1 activity in vitro according to Experimental Methods.

[6] = target: T1, butyrylcholinesterase (BChE); assay: BChE enzyme kinetics (Dixon plot and Lineweaver plot); format: biochemical
Method: as §1, §2

[7] = target: T4, BACE1 (Homo sapiens, UniProt P56817); assay: BACE1 enzyme kinetics (Dixon plot and Lineweaver plot); format: biochemical
T4 construct: purchased Pan Vera Co. (Madison, WI, USA)
T4 sequence (P56817 46-501): as above
Method: A BACE1 fluorescence resonance energy transfer (FRET) assay kit (β-secretase, recombinant human enzyme) was purchased from Pan Vera Co. (Madison, WI, USA). The assay was carried out according to the manual provided, with a modification made thereto as described by Jung et al. (Jung et al., Biol Pharm Bull, 2010, 33:267-272). Quercetin was used as a positive control.
In addition, an enzyme kinetics experiment was conducted using the Lineweaver plot and Dixon plot (see FIG. 7) in order to examine the BACE1 inhibition mechanism of the novel compound (Compound 2). […] The results of the experiment indicate that the novel compound of the present disclosure is a very potent inhibitor against BACE1.

[8] = target: T2, acetylcholinesterase (AChE); assay: AChE enzyme kinetics (Dixon plot and Lineweaver plot); format: biochemical
Method: as §1, §2

| Compound | IC50 [1] | LD50 Cancer cell B16F10 [2] | LD50 Normal cell NIH3T3 [3] | IC50 ([4]; concentrations up to 125 μM, Mean ± SEM, read-out: IC50 Acetylcholine Esterase Mean ± SEM) | SI: selectivity index (BChE/AChE) [4] | IC50 [5] | Inhibition type Butyrylcholinesterase [6] | Inhibition type Butyrylcholinesterase ([6]; listed as (2R)-Pteroside B) | Inhibition type BACE1 [7] | Ki [7] | Inhibition type BACE1 ([7]; listed as (2R)-Pteroside B) | Inhibition type Acetylcholinesterase [8] | Inhibition type Acetylcholinesterase ([8]; listed as (2R)-Pteroside B) |
| --- | --- | --- | --- | --- | --- | --- | --- | --- | --- | --- | --- | --- | --- |
| Cc1cc2c(c(C)c1CCO[C@@H]1OC(CO)[C@@H](O)C(O)C1O)C(=O)[C@](C)(O)C2 (single isomer, unassigned; (-)) [Compound 18, (−)-pteroside N] | 7.39 ± 0.99 µM | >5,000 μM | >5,000 μM | 4.47 ± 0.29 µM | 1.7 | 30.6 ± 1.8 µM |  |  |  |  |  |  |  |
| Cc1cc2c(c(C)c1CCO[C@@H]1OC(CO)[C@@H](O)[C@H](O)C1O)C(=O)[C@H](C)C2 (stereo partly drawn) [Compound 14, (2R)-pteroside B] | 17.6 ± 3.1 µM | >5,000 μM | >5,000 μM |  | 6.9 | 43.4 ± 3 µM | mixed type | Mixed-type | noncompetitive type | 72.5 µM | Noncompetitive | mixed type | Mixed-type |
